We go through 1 molecule from paper PMC7166077, “A systematic strategy for estimating hERG block potency and its implications in a new cardiac safety paradigm” (Toxicology and Applied Pharmacology, 2020).

The target of the experiment is T1, hERG (Kv11.1 potassium channel) (Homo sapiens, UniProt Q12809).
T1 construct: gene KCNH2
The experiment is described as follows: automated patch clamp, multi-site, Bayesian hierarchical model.

T1 sequence (Q12809 whole entry): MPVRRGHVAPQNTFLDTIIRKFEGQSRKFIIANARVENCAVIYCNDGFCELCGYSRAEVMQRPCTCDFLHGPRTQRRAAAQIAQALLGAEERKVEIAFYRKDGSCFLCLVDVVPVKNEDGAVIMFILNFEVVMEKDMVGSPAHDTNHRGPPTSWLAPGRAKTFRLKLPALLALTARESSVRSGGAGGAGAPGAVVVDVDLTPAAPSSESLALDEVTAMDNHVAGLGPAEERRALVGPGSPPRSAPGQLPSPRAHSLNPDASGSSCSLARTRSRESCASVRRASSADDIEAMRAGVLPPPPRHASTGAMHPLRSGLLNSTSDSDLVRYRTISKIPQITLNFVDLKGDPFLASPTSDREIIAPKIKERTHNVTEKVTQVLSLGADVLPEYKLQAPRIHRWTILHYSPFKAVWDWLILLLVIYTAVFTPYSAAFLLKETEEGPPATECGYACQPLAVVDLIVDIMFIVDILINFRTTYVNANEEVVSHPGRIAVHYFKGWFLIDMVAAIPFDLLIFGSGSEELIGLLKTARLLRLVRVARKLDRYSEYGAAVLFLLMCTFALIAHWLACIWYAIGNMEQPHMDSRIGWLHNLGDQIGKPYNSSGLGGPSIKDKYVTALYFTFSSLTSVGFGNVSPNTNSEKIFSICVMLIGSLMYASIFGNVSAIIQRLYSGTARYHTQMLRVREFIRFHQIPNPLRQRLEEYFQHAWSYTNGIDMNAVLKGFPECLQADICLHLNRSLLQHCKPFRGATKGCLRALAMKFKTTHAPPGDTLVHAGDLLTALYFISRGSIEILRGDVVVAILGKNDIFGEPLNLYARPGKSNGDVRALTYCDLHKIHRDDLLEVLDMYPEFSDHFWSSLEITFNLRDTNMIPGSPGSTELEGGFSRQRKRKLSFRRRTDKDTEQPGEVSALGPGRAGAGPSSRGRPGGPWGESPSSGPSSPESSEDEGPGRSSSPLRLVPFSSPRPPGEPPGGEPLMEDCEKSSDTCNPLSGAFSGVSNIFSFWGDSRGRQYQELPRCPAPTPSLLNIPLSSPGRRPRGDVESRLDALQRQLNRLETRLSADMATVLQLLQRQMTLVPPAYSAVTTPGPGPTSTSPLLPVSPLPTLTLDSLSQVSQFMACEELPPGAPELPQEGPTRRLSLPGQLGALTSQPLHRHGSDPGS

The molecule `CCOC(=O)C1=C(C)NC(C)=C(C(=O)OC)C1c1cccc([N+](=O)[O-])c1` (stereo not shown) [nitrendipine] had an IC50 of 20 µM.
